{"source": "patent US20230330093A1", "about": "“APPLICATION OF NITROGEN-CONTAINING SATURATED HETEROCYCLIC COMPOUND” (SHANGHAI PHARMACEUTICALS HOLDING CO., LTD., priority 2020, published 2023)", "test_system": "rhesus monkeys with spontaneous chronic kidney disease", "assay": "Effect on glomerular filtration rate eGFRcreat-cys, 8-week administration", "format": "in vivo, Macaca mulatta (Rhesus Macaque)", "description": "CKD-EPI rating […]-G3b, glomerular filtration rate eGFR: 30 59 ml/min/1.73 m^2; or moderate to severe increase in proteinuria (A2-A3): urine albumin/creatinine ratio (UACR)>15 mg/g-350 mg/g (4-6 hour urine collection), vs. age-matched control group 3±2 mg/g. In the trial, animals were brought in three stages. […] Glomerular filtration rate […]: creatinine (Cr-P), urea nitrogen (BUN) and cystatin (CysC) were detected, and the eGFR value was obtained by calculation. It was performed once before the administration and once every two weeks after the administration. […] ELISA kit was used for NT-proBNP test. [table] Selected […] in each group: 30 59 ml/min/1.73 m^2. The changes in the glomerular filtration rate of W8 and baseline were analyzed.", "note": "“And” between values parts separate entries of the source, which are not always exact repeats. Equal entries are not always repeated.", "data": [{"compound": "COC(=O)NCCCn1nc([C@@H](C)N(C(=O)[C@H]2CNCCO2)C2CC2)c2ccc(C)nc21.O=C(O)C[C@H](O)C(=O)O", "note": "[malate of compound of Formula I]", "values": [{"measurement": "eGFRcreat-cys", "setting": "1 mg/kg qd (n = 5), Baseline, single animals and Mean ± SD, group mean", "value": "52 ± 1", "unit": "ml/min/1.73 m^2"}, {"measurement": "eGFRcreat-cy, Change value", "setting": "2 mg/kg oral once a day, 2 weeks vs baseline, per animal + Mean ± SD", "value": "5 ml/min/1.73 m^2 and −3 ml/min/1.73 m^2 (3×) and 0 ml/min/1.73 m^2"}, {"measurement": "eGFRcreat-cy, Change value", "setting": "2 mg/kg oral once a day, 2 weeks vs baseline, per animal + Mean ± SD, mean", "value": "−1 ± 3", "unit": "ml/min/1.73 m^2"}, {"measurement": "eGFRcreat-cy, Change value", "setting": "2 mg/kg oral once a day, 4 weeks vs baseline, per animal + Mean ± SD", "value": "7 ml/min/1.73 m^2 and −5 ml/min/1.73 m^2 and 1 ml/min/1.73 m^2 (2×) and 10 ml/min/1.73 m^2"}, {"measurement": "eGFRcreat-cy, Change value", "setting": "2 mg/kg oral once a day, 4 weeks vs baseline, per animal + Mean ± SD, mean", "value": "3 ± 6", "unit": "ml/min/1.73 m^2"}, {"measurement": "eGFRcreat-cy, Change value", "setting": "2 mg/kg oral once a day, 6 weeks vs baseline, per animal + Mean ± SD", "value": "4 ml/min/1.73 m^2 and −1 ml/min/1.73 m^2 and 0 ml/min/1.73 m^2 and 5 ml/min/1.73 m^2 (2×)"}, {"measurement": "eGFRcreat-cy, Change value", "setting": "2 mg/kg oral once a day, 6 weeks vs baseline, per animal + Mean ± SD, mean", "value": "3 ± 3", "unit": "ml/min/1.73 m^2"}, {"measurement": "eGFRcreat-cy, Change value", "setting": "2 mg/kg oral once a day, 8 weeks vs baseline, per animal + Mean ± SD (p<0.05 vs placebo)", "value": "3±3 ml/min/1.73 m^2 and 5 ml/min/1.73 m^2 and 0 ml/min/1.73 m^2 and 2 ml/min/1.73 m^2 and 6 ml/min/1.73 m^2 and 1 ml/min/1.73 m^2"}, {"measurement": "eGFRcreat-cy, Change value", "setting": "2 mg/kg oral once a day, Baseline, per animal + Mean ± SD", "value": 0, "unit": "ml/min/1.73 m^2"}, {"measurement": "eGFRcreat-cy, Change value", "setting": "2 mg/kg oral once a day, Baseline, per animal + Mean ± SD, mean", "value": "0 ± 0", "unit": "ml/min/1.73 m^2"}, {"measurement": "eGFRcreat-cys", "setting": "2 mg/kg qd (n = 5), 2 weeks", "value": "58 ml/min/1.73 m^2 and 47 ml/min/1.73 m^2 and 46 ml/min/1.73 m^2 and 43 ml/min/1.73 m^2 and 57 ml/min/1.73 m^2"}, {"measurement": "eGFRcreat-cys", "setting": "2 mg/kg qd (n = 5), 2 weeks, group mean", "value": "50 ± 7", "unit": "ml/min/1.73 m^2"}, {"measurement": "eGFRcreat-cys", "setting": "2 mg/kg qd (n = 5), 4 weeks", "value": "61 ml/min/1.73 m^2 and 45 ml/min/1.73 m^2 and 50 ml/min/1.73 m^2 and 56 ml/min/1.73 m^2 and 59 ml/min/1.73 m^2"}, {"measurement": "eGFRcreat-cys", "setting": "2 mg/kg qd (n = 5), 4 weeks, group mean", "value": "54 ± 7", "unit": "ml/min/1.73 m^2"}, {"measurement": "eGFRcreat-cys", "setting": "2 mg/kg qd (n = 5), 6 weeks", "value": "58 ml/min/1.73 m^2 and 48 ml/min/1.73 m^2 and 51 ml/min/1.73 m^2 and 62 ml/min/1.73 m^2"}, {"measurement": "eGFRcreat-cys", "setting": "2 mg/kg qd (n = 5), 6 weeks, group mean", "value": "54 ± 6", "unit": "ml/min/1.73 m^2"}, {"measurement": "eGFRcreat-cys", "setting": "2 mg/kg qd (n = 5), Baseline, single animals and Mean ± SD", "value": "54 ml/min/1.73 m^2 and 50 ml/min/1.73 m^2 and 48 ml/min/1.73 m^2 and 46 ml/min/1.73 m^2 and 58 ml/min/1.73 m^2"}, {"measurement": "eGFRcreat-cys", "setting": "2 mg/kg qd (n = 5), Baseline, single animals and Mean ± SD, group mean", "value": "51 ± 5", "unit": "ml/min/1.73 m^2"}, {"measurement": "eGFRcreat-cy, Change value", "setting": "5 mg/kg oral once a day, 2 weeks vs baseline, per animal + Mean ± SD", "value": "4 ml/min/1.73 m^2 and 9 ml/min/1.73 m^2 and 11 ml/min/1.73 m^2 and −4 ml/min/1.73 m^2 and 1 ml/min/1.73 m^2 and 17 ml/min/1.73 m^2"}, {"measurement": "eGFRcreat-cy, Change value", "setting": "5 mg/kg oral once a day, 2 weeks vs baseline, per animal + Mean ± SD, mean", "value": "5 ± 9", "unit": "ml/min/1.73 m^2"}, {"measurement": "eGFRcreat-cy, Change value", "setting": "5 mg/kg oral once a day, 4 weeks vs baseline, per animal + Mean ± SD", "value": "−3 ml/min/1.73 m^2 and 4 ml/min/1.73 m^2 and 6 ml/min/1.73 m^2 and 2 ml/min/1.73 m^2 and 12 ml/min/1.73 m^2 and 11 ml/min/1.73 m^2"}, {"measurement": "eGFRcreat-cy, Change value", "setting": "5 mg/kg oral once a day, 4 weeks vs baseline, per animal + Mean ± SD, mean", "value": "5 ± 6", "unit": "ml/min/1.73 m^2"}, {"measurement": "eGFRcreat-cy, Change value", "setting": "5 mg/kg oral once a day, 6 weeks vs baseline, per animal + Mean ± SD", "value": "−1 ml/min/1.73 m^2 (2×) and 6 ml/min/1.73 m^2 and −2 ml/min/1.73 m^2 and 11 ml/min/1.73 m^2 (2×)"}, {"measurement": "eGFRcreat-cy, Change value", "setting": "5 mg/kg oral once a day, 6 weeks vs baseline, per animal + Mean ± SD, mean", "value": "4 ± 6", "unit": "ml/min/1.73 m^2"}, {"measurement": "eGFRcreat-cy, Change value", "setting": "5 mg/kg oral once a day, 8 weeks vs baseline, per animal + Mean ± SD (p<0.05 vs placebo)", "value": "6±6 ml/min/1.73 m^2 and 3 ml/min/1.73 m^2 and 6 ml/min/1.73 m^2 and 4 ml/min/1.73 m^2 and 2 ml/min/1.73 m^2 and 8 ml/min/1.73 m^2 and 17 ml/min/1.73 m^2"}, {"measurement": "eGFRcreat-cy, Change value", "setting": "5 mg/kg oral once a day, Baseline, per animal + Mean ± SD", "value": 0, "unit": "ml/min/1.73 m^2"}, {"measurement": "eGFRcreat-cy, Change value", "setting": "5 mg/kg oral once a day, Baseline, per animal + Mean ± SD, mean", "value": "0 ± 0", "unit": "ml/min/1.73 m^2"}, {"measurement": "eGFRcreat-cys", "setting": "5 mg/kg qd (n = 6), 2 weeks", "value": "51 ml/min/1.73 m^2 and 57 ml/min/1.73 m^2 and 62 ml/min/1.73 m^2 and 37 ml/min/1.73 m^2 and 54 ml/min/1.73 m^2 and 61 ml/min/1.73 m^2"}, {"measurement": "eGFRcreat-cys", "setting": "5 mg/kg qd (n = 6), 2 weeks, group mean", "value": "54 ± 9", "unit": "ml/min/1.73 m^2"}, {"measurement": "eGFRcreat-cys", "setting": "5 mg/kg qd (n = 6), 6 weeks", "value": "53 ml/min/1.73 m^2 and 54 ml/min/1.73 m^2 and 49 ml/min/1.73 m^2 and 40 ml/min/1.73 m^2 and 64 ml/min/1.73 m^2"}, {"measurement": "eGFRcreat-cys", "setting": "5 mg/kg qd (n = 6), 6 weeks, group mean", "value": "53 ± 8", "unit": "ml/min/1.73 m^2"}, {"measurement": "eGFRcreat-cys", "setting": "5 mg/kg qd (n = 6), 8 weeks", "value": "57 ml/min/1.73 m^2 and 53 ml/min/1.73 m^2 and 55 ml/min/1.73 m^2 and 43 ml/min/1.73 m^2 and 61 ml/min/1.73 m^2 and 60 ml/min/1.73 m^2"}, {"measurement": "eGFRcreat-cys", "setting": "5 mg/kg qd (n = 6), 8 weeks, group mean", "value": "55 ± 7", "unit": "ml/min/1.73 m^2"}, {"measurement": "eGFRcreat-cys", "setting": "5 mg/kg qd (n = 6), Baseline, single animals and Mean ± SD", "value": "55 ml/min/1.73 m^2 and 48 ml/min/1.73 m^2 and 51 ml/min/1.73 m^2 and 41 ml/min/1.73 m^2 and 53 ml/min/1.73 m^2 and 43 ml/min/1.73 m^2"}, {"measurement": "eGFRcreat-cys", "setting": "5 mg/kg qd (n = 6), Baseline, single animals and Mean ± SD, group mean", "value": "49 ± 5", "unit": "ml/min/1.73 m^2"}, {"measurement": "glomerular filtration rate eGFRcreat-cys improvement", "setting": "2-5 mg/kg qd for 8 weeks", "value": "can be significantly improved"}]}]}
